According to PMC10385442, “Galactoside-Based Molecule Enhanced Antimicrobial Activity through Acyl Moiety Incorporation: Synthesis and In Silico Exploration for Therapeutic Target” (Pharmaceuticals, 2023):
Converted amounts (≈) assume the structure as drawn. Like-named read-outs stand apart in the source and are kept apart here.

Columns and labels:
[1] = test system: Aspergillus flavus (ATCC 204304); test: Antifungal poisoned food method, mycelial growth; format: cell-based; settings: NI: no inhibition
Procedure: (§1) The food poisoning method with potato dextrose agar (PDA) as the culture medium was used to test the antifungal action. Twenty milliliters of 45 °C sterilized, melted potato dextrose agar medium (PDA) was placed into sterile 70-mm glass Petri plates. The “poisoned food” method was used to determine how the synthesized MDGP (1) derivatives affected the growth of the fungal mycelium.

[2] = test system: Aspergillus niger (ATCC 16404); test: Antifungal poisoned food method, mycelial growth; format: cell-based; settings: NI: no inhibition
Procedure: as §1

[3] = test system: B. subtilis (G + ve) (ATCC 6633); test: Disc diffusion antibacterial susceptibility; format: cell-based, Bacillus subtilis; settings: B. subtilis (ATCC 6633), triplicate, NI = No inhibition
Description: (§2) The methodology employed to determine the antibacterial properties of the synthesized compounds (each compound dissolved in dimethyl sulfoxide 7% DMSO) involved the use of the disc diffusion approach. This was done following a previously described method with slight modifications. First, an inoculum was obtained from a bacterial colony and diluted to a concentration of 0.5 McFarland standard in sterile saltwater containing 0.9% NaCl. The suspension was then transferred to a sterile tube and allowed to settle for 5 min, after which the top homogeneous solution was transferred to another sterile tube. The concentration of the solution was adjusted to a 0.5 McFarland turbidity standard to obtain an inoculum of approximately 10^6 CFU/mL.

[4] = test system: E. coli (G − ve) (ATCC 8739); test: Disc diffusion antibacterial susceptibility; format: cell-based, Escherichia coli; settings: E. coli (ATCC 8739), triplicate, NI = No inhibition
Description: as §2

[5] = test system: S. typhi (G − ve) (AE 14612); test: Disc diffusion antibacterial susceptibility; format: cell-based, Salmonella typhi; settings: S. typhi (AE 14612), triplicate, NI = No inhibition
Description: as §2

[6] = test system: P. aeruginosa (G − ve) (ATCC 9027); test: Disc diffusion antibacterial susceptibility; format: cell-based; settings: for Diameter of Inhibition Zones: P. aeruginosa (ATCC 9027), triplicate, NI = No inhibition; for antibacterial activity category: P. aeruginosa, category by zone
Description: as §2

[7] = test system: S. aureus (G + ve) (BTCC 19); test: Disc diffusion antibacterial susceptibility; format: cell-based; settings: for Diameter of Inhibition Zones: S. aureus (BTCC 19), triplicate, NI = No inhibition
Description: as §2

[8] = test system: B. subtilis (ATCC 6633); test: MIC and MBC by broth dilution; format: cell-based, Bacillus subtilis
Procedure: (§3) To determine the minimum inhibitory concentration (MIC) of the synthesized compounds against the tested bacterial strains, a dilution method was employed. The objective was to establish the lowest concentration of the compound at which approximately 90% of bacterial growth was inhibited. To this end, a bacterial suspension of 300 μL at a concentration of 0.5 McFarland standard was seeded into individual tubes of 9 mL nutrient broth, with each tube receiving 1 mL of different concentrations of the synthesized compound at twofold serial dilutions and 7% DMSO, which served as the negative control. The tubes were then kept at 37 °C for a whole night. The MIC and MBC values were determined by using the naked eye to compare the turbidity of the tube to that of a reference medium with a 0.5 McFarland value.

[9] = test system: E. coli (ATCC 8739); test: MIC and MBC by broth dilution; format: cell-based, Escherichia coli; settings: for MBC: eradicates 99.9% of inoculum
Procedure: as §3

[10] = test system: S. typhi (AE 14612); test: MIC and MBC by broth dilution; format: cell-based, Salmonella typhi
Procedure: as §3

[11] = test system: B. cereus (BTCC 19); test: MIC and MBC by broth dilution; format: cell-based; settings: for MBC: eradicates 99.9% of inoculum
Procedure: as §3

[12] = test system: P. aeruginosa (ATCC 9027); test: MIC and MBC by broth dilution; format: cell-based
Procedure: as §3

[13] = Bacillus subtilis, ATCC6633, eradicates 99.9% of inoculum, read-out: MBC
[14] = Bacillus subtilis, ATCC6633, read-out: MIC
[15] = Escherichia coli, ATCC8739, E. coli, read-out: MBC
[16] = Escherichia coli, ATCC8739, E. coli, read-out: MIC
[17] = S. typhi, eradicates 99.9% of inoculum
[18] = Pseudomonas aeruginosa, ATCC9027, eradicates 99.9% of inoculum, read-out: MBC
[19] = Pseudomonas aeruginosa, ATCC9027, read-out: MIC

C[C@@H]1[C@H](O)[C@@H](C)/C=C/C=C/CC/C=C/C=C/C=C/C=C/C(O[C@H]2O[C@H](C)[C@@H](O)[C@H](N)[C@@H]2O)CC2O[C@](O)(CC(O)C(O)CCC(O)CC(O)CC(O)CC(=O)O[C@H]1C)CC(O)C2C(=O)O (stereo partly drawn) [Nystatin, reference compound]
% Inhibition of Fungal Mycelial Growth [1]: ** 65.2 ± 1.2% | % Inhibition of Fungal Mycelial Growth [2]: ** 66.7 ± 1.1%

CC[C@H]1OC(=O)[C@H](C)[C@@H](O[C@H]2C[C@@](C)(OC)[C@@H](O)[C@H](C)O2)[C@H](C)[C@@H](O[C@@H]2O[C@H](C)C[C@H](N(C)C)[C@H]2O)[C@](C)(O)C[C@@H](C)CN(C)[C@H](C)[C@@H](O)[C@]1(C)O [Azithromycin, reference compound]
Diameter of Inhibition Zones [3]: ** 18.25 ± 0.2 mm | Diameter of Inhibition Zones [4]: ** 17.25 ± 0.2 mm | Diameter of Inhibition Zones [5]: ** 18.0 ± 0.1 mm | Diameter of Inhibition Zones [6]: ** 18.5 ± 0.3 mm | Diameter of Inhibition Zones [7]: ** 17.50 ± 0.2 mm

CO[C@@H]1O[C@H](COC(=O)c2ccccc2Br)[C@H](OC(=O)c2ccc(Cl)cc2)[C@H](OC(=O)c2ccc(Cl)cc2)[C@H]1OC(=O)c1ccc(Cl)cc1 [Compound 6, Methyl 6-O-(2-bromobenzoyl)-2,3,4-tri-O-(4-chlorobenzoyl)-β-D-galactopyranoside]
Diameter of Inhibition Zones [3]: * 12.75 ± 0.1 mm | Diameter of Inhibition Zones [4]: 11.25 ± 0.2 mm | Diameter of Inhibition Zones [5]: * 13.00 ± 0.3 mm | Diameter of Inhibition Zones [6]: 11.50 ± 0.1 mm | Diameter of Inhibition Zones [7]: 11.50 ± 0.3 mm | MIC [8]: 500 µg/mL (≈ 0.631 mM) | MBC [8, 13]: 16000 µg/mL (≈ 20.2 mM) | MIC [8, 14]: 500 µg/mL (≈ 0.631 mM) | MBC ([8]; eradicates 99.9% of inoculum): 16000 µg/mL (≈ 20.2 mM) | MIC ([9]; E. coli): 1000 µg/mL (≈ 1.26 mM) | MBC ([9]; E. coli): 8000 µg/mL (≈ 10.1 mM) | MBC [9, 15]: 16000 µg/mL (≈ 20.2 mM) | MIC [9, 16]: 1000 µg/mL (≈ 1.26 mM) | MIC ([10]; S. typhi): 2000 µg/mL (≈ 2.52 mM) | MBC [10, 17]: 8000 µg/mL (≈ 10.1 mM) | MBC ([10]; Salmonella enterica, TYPHI): 8000 µg/mL (≈ 10.1 mM) | MIC ([10]; Salmonella enterica, TYPHI): 2000 µg/mL (≈ 2.52 mM) | MIC [11]: 2000 µg/mL (≈ 2.52 mM) | MBC ([11]; Bacillus cereus, read-out: MBC): 8000 µg/mL (≈ 10.1 mM) | MIC ([11]; Bacillus cereus, read-out: MIC): 2000 µg/mL (≈ 2.52 mM) | MBC [11]: 8000 µg/mL (≈ 10.1 mM) | MIC [12]: 8000 µg/mL (≈ 10.1 mM) | MBC [12, 18]: 16000 µg/mL (≈ 20.2 mM) | MIC [12, 19]: 8000 µg/mL (≈ 10.1 mM) | MBC ([12]; eradicates 99.9% of inoculum): 16000 µg/mL (≈ 20.2 mM) | % Inhibition of Fungal Mycelial Growth [1]: * 81.97 ± 1.2% | % Inhibition of Fungal Mycelial Growth [2]: * 78.81 ± 1.0%

CCCCCCCCCCCCCC(=O)O[C@H]1[C@@H](OC(=O)CCCCCCCCCCCCC)[C@@H](COC(=O)c2ccccc2Br)O[C@@H](OC)[C@@H]1OC(=O)CCCCCCCCCCCCC [Compound 4, Methyl 6-O-(2-bromobenzoyl)-2,3,4-tri-O-myristoyl-β-D-galactopyranoside]
% Inhibition of Fungal Mycelial Growth [2]: * 71.19 ± 1.0%

CO[C@@H]1O[C@H](COC(=O)c2ccccc2Br)[C@H](O)[C@H](O)[C@H]1O [Compound 2, Methyl 6-O-(2-bromobenzoyl)-β-D-galactopyranoside]
Diameter of Inhibition Zones [5]: 11.25 ± 0.2 mm | Diameter of Inhibition Zones [6]: * 15.00 ± 0.1 mm | antibacterial activity category [6]: high activity (high activity at 15 mm or more) | Diameter of Inhibition Zones [7]: 10.50 ± 0.2 mm | % Inhibition of Fungal Mycelial Growth [1]: * 85.66 ± 0.9% | % Inhibition of Fungal Mycelial Growth [2]: * 72.88 ± 1.0%

CCCCCCCCCCCC(=O)O[C@H]1[C@@H](OC(=O)CCCCCCCCCCC)[C@@H](COC(=O)c2ccccc2Br)O[C@@H](OC)[C@@H]1OC(=O)CCCCCCCCCCC [Compound 3, Methyl 6-O-(2-bromobenzoyl)-2,3,4-tri-O-lauroyl-β-D-galactopyranoside]
Diameter of Inhibition Zones [3]: * 13.00 ± 0.1 mm | Diameter of Inhibition Zones [4]: 11.00 ± 0.2 mm | Diameter of Inhibition Zones [5]: * 12.25 ± 0.1 mm | Diameter of Inhibition Zones [6]: 11.25 ± 0.3 mm | Diameter of Inhibition Zones [7]: * 15.50 ± 0.3 mm | antibacterial activity category ([7]; category by zone): high activity (high activity at 15 mm or more) | MIC [8]: 8000 µg/mL (≈ 8.66 mM) | MBC [8, 13]: 16000 µg/mL (≈ 17.3 mM) | MIC [8, 14]: 8000 µg/mL (≈ 8.66 mM) | MBC ([8]; eradicates 99.9% of inoculum): 16000 µg/mL (≈ 17.3 mM) | MIC ([9]; E. coli): 2000 µg/mL (≈ 2.16 mM) | MBC ([9]; E. coli): 16000 µg/mL (≈ 17.3 mM) | MBC [9, 15]: 16000 µg/mL (≈ 17.3 mM) | MIC [9, 16]: 2000 µg/mL (≈ 2.16 mM) | MBC [10, 17]: 8000 µg/mL (≈ 8.66 mM) | MBC ([10]; Salmonella enterica, TYPHI): 8000 µg/mL (≈ 8.66 mM) | MIC ([10]; Salmonella enterica, TYPHI): 125 µg/mL (≈ 0.135 mM) | MIC [11]: 8000 µg/mL (≈ 8.66 mM) | MBC ([11]; Bacillus cereus, read-out: MBC): 8000 µg/mL (≈ 8.66 mM) | MIC ([11]; Bacillus cereus, read-out: MIC): 8000 µg/mL (≈ 8.66 mM) | MBC [11]: 8000 µg/mL (≈ 8.66 mM) | MBC [12, 18]: 16000 µg/mL (≈ 17.3 mM) | MIC [12, 19]: 250 µg/mL (≈ 0.271 mM) | MBC ([12]; eradicates 99.9% of inoculum): 16000 µg/mL (≈ 17.3 mM) | % Inhibition of Fungal Mycelial Growth [1]: * 84.02 ± 1.3% | % Inhibition of Fungal Mycelial Growth [2]: * 64.83 ± 1.1%

CO[C@@H]1O[C@H](COC(=O)c2ccccc2Br)[C@H](OC(=O)c2cccc(Cl)c2)[C@H](OC(=O)c2cccc(Cl)c2)[C@H]1OC(=O)c1cccc(Cl)c1 [Compound 5, Methyl 6-O-(2-bromobenzoyl)-2,3,4-tri-O-(3-chlorobenzoyl)-β-D-galactopyranoside]
Diameter of Inhibition Zones [6]: * 18.25 ± 0.3 mm | antibacterial activity category [6]: high activity (high activity at 15 mm or more) | % Inhibition of Fungal Mycelial Growth [1]: * 81.97 ± 1.0% | % Inhibition of Fungal Mycelial Growth [2]: 48.73 ± 1.1%

CO[C@@H]1O[C@H](COC(=O)c2ccccc2Br)[C@H](OC(=O)c2ccc(C(C)(C)C)cc2)[C@H](OC(=O)c2ccc(C(C)(C)C)cc2)[C@H]1OC(=O)c1ccc(C(C)(C)C)cc1 [Compound 7, Methyl 6-O-(2-bromobenzoyl)-2,3,4-tri-O-(4-t-butylbenzoyl)-β-D-galactopyranoside]
Diameter of Inhibition Zones [3]: 7.75 ± 0.1 mm | Diameter of Inhibition Zones [4]: 8.50 ± 0.1 mm | Diameter of Inhibition Zones [5]: 9.00 ± 0.3 mm | Diameter of Inhibition Zones [6]: 7.50 ± 0.3 mm
